Tests used:
APOE [1] = assay: APOE expression by qRT-PCR in APOE4/4 pericytes treated with cyclosporin analogs; format: cell-based, human; settings: compared with cyclosporin A and FK506
From the text: FIGS. 2A-2D show APOE expression measured by qRT-PCR in APOE4/4 pericytes following treatment with Cyclosporin A (FIG. 2A), FK506 (FIG. 2B), Cyclosporin D (FIG. 2C), Cyclosporin H (FIG. 2D). One-way ANOVA with Bonferroni's Multiple Comparison test, 6 replicates per a timepoint.
FK506 and cyclosporin A can reduce the expression of APOE in human pericytes and brain cells and reverse or prevent cerebrovascular pathologies associated with Alzheimer's Disease such as cerebral amyloid angiopathy. Both cyclosporine A and FK506 have immunosuppressant activity. […] Results showing APOE expression after APOE4 pericytes were treated with Cyclosporin analogs for two weeks are depicted in FIG. 1. Following treatment with Cyclosporin A, FK506, Cyclosporin D, Cyclosporin H, APOE expression was measured by qRT-PCR in APOE4/4 pericytes (see FIGS. 2A-2D).

APOE4/5×FAD mice = settings: mouse, in vivo
APOE [2] = settings: E4 pericytes, earlier work of the inventors; cited from earlier work

C/C=C/C[C@@H](C)[C@@H](O)[C@H]1C(=O)N[C@@H](C(C)C)C(=O)N(C)CC(=O)N(C)[C@@H](CC(C)C)C(=O)N[C@@H](C(C)C)C(=O)N(C)[C@@H](CC(C)C)C(=O)N[C@@H](C)C(=O)N[C@H](C)C(=O)N(C)[C@@H](CC(C)C)C(=O)N(C)[C@@H](CC(C)C)C(=O)N(C)[C@@H](C(C)C)C(=O)N1C [cyclosporin D]
kinetics of APOE expression reduction (APOE [1]): faster kinetics
potency in reducing APOE expression (able to reduce at lower doses) (APOE [1]): significantly more potent

C=CC[C@@H]1/C=C(\C)C[C@H](C)C[C@H](OC)[C@H]2O[C@@](O)(C(=O)C(=O)N3CCCC[C@H]3C(=O)O[C@H](/C(C)=C/[C@@H]3CC[C@@H](O)[C@H](OC)C3)[C@H](C)[C@@H](O)CC1=O)[C@H](C)C[C@@H]2OC [FK506]
toxicity compared to cyclosporine treated mice (APOE4/5×FAD mice): less toxicity

O=C1C=CC(=O)C2=C1C1c3ccccc3C2c2ccccc21 [INCA6]
APOE gene expression (APOE [2]): reduction
APOE protein (APOE [2]): reduction
